From the supplement of paper PMC6045584
± gives the standard deviation of the averaged measurements.

Legend:
[1] = compound: Cc1ccc(NC(=O)c2ccc(CN3CCN(C)CC3)cc2)cc1Nc1nccc(-c2cccnc2)n1 [IMATINIB]; assay: surviving fraction relative to DMSO-only wells; higher = less growth inhibition; details: exposure time: 5 days
Summary of the method: (§1)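 For each tumour cell line, log-phase cells were put into 384-well plates at 250–500 cells per well, then after 24 hours exposed continuously for five days to inhibitors at 0.5, 1, 5, 10, 50, 100, 500 and 1000 nM. Viability was assessed by CellTiter-Glo luminescence, with surviving fraction expressed relative to the median of DMSO-only wells. Lines were screened three times and retained only if replicate Pearson r exceeded 0.7 and median Z' exceeded 0.3.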

[2] = compound: C[C@H](CN(C)C)Oc1nc(Nc2cc3cccc(Cl)c3cn2)cnc1C#N; assay: as above; details: exposure time: 5 days
Summary of the method: as §1

Test System	surviving fraction ([1]; 0.5 nM)	surviving fraction ([1]; 1 nM)	surviving fraction ([1]; 5 nM)	surviving fraction ([1]; 10 nM)	surviving fraction ([1]; 50 nM)	surviving fraction ([1]; 100 nM)	surviving fraction ([1]; 500 nM)	surviving fraction ([1]; 1000 nM)	surviving fraction ([2]; 0.5 nM)	surviving fraction ([2]; 1 nM)	surviving fraction ([2]; 5 nM)	surviving fraction ([2]; 10 nM)	surviving fraction ([2]; 50 nM)	surviving fraction ([2]; 100 nM)	surviving fraction ([2]; 500 nM)	surviving fraction ([2]; 1000 nM)
HCC1954 BREAST	1.2 ± 0.15	1.28 ± 0.091	1.23 ± 0.12	1.27 ± 0.045	0.9283 ± 0.006	0.887 ± 0.025	1.07 ± 0.1	1 ± 0.0071	1.14 ± 0.11	1.24 ± 0.018	1.32 ± 0.023	1.11 ± 0.15	1.35 ± 0.051	1.04 ± 0.024	0.48 ± 0.072	0.242 ± 0.02
HCT15 LARGE INTESTINE	1.13 ± 0.027	1.1 ± 0.035	1.12 ± 0.024	1.12 ± 0.038	1.15 ± 0.08	1.119 ± 0.011	1.18 ± 0.054	1.14 ± 0.046	1.05 ± 0.022	1.04 ± 0.05	1.04 ± 0.022	1.05 ± 0.038	1.06 ± 0.051	1.06 ± 0.069	0.998 ± 0.057	0.799 ± 0.11
HELA CERVIX	1.13 ± 0.034	1.04 ± 0.039	1.03 ± 0.056			1.1 ± 0.016	1.14 ± 0.086	1.09 ± 0.043	1.01 ± 0.019	1.03 ± 0.043	0.999 ± 0.058	0.988 ± 0.079	1.11 ± 0.037	1.07 ± 0.048	1.09 ± 0.085	0.831 ± 0.029
HOS BONE	1.03 ± 0.02		1.04 ± 0.028	1.047 ± 0.0078		1.06 ± 0.023	1.03 ± 0.037		1.01 ± 0.014	1.01 ± 0.024	0.996 ± 0.018	0.9907 ± 0.005	1.01 ± 0.035	1.002 ± 0.01	0.619 ± 0.023	0.16 ± 0.017
HOSMNG BONE	1.04 ± 0.12	1.01 ± 0.067	0.994 ± 0.085	1 ± 0.019	1.09 ± 0.1	1.14 ± 0.073		1.07 ± 0.14	0.943 ± 0.14	0.937 ± 0.064	0.984 ± 0.072	0.964 ± 0.047	1.02 ± 0.072	1.05 ± 0.079	0.983 ± 0.096	0.0657 ± 0.0067
HSSYII SYNOVIAL	1 ± 0.1	0.967 ± 0.026		1.04 ± 0.049	0.966 ± 0.021	0.998 ± 0.033	0.971 ± 0.063	0.948 ± 0.024	0.9423 ± 0.0023	0.918 ± 0.0061	0.956 ± 0.042	0.94 ± 0.066	0.884 ± 0.039	0.74 ± 0.015	0.139 ± 0.0076	0.077 ± 0.0027
HT1080 SOFT TISSUE	1.045 ± 0.01	1.074 ± 0.0023	1.1 ± 0.048	1.07 ± 0.021	1.04 ± 0.036	1.03 ± 0.033			1.04 ± 0.044	1.03 ± 0.011	1.04 ± 0.017	1.04 ± 0.023	1 ± 0.028	0.972 ± 0.041	0.707 ± 0.018	0.398 ± 0.012
HU09 BONE	1.05 ± 0.19	1.01 ± 0.034	1.16 ± 0.038		0.878 ± 0.084	0.89 ± 0.0044	0.554 ± 0.027	0.483 ± 0.026	1.05 ± 0.11	0.964 ± 0.017	1.02 ± 0.086	1.02 ± 0.092	1.07 ± 0.13	0.903 ± 0.12	0.437 ± 0.063	0.261 ± 0.054
HUO3N1 BONE	1.06 ± 0.039	0.9677 ± 0.0058	1.072 ± 0.0071	1.04 ± 0.027			0.892 ± 0.038	0.878 ± 0.062	1.11 ± 0.059	1.05 ± 0.032	1.07 ± 0.023	1.07 ± 0.072	1.13 ± 0.071	0.982 ± 0.031	0.7257 ± 0.0065	0.486 ± 0.025
JIMT1 BREAST	1.04 ± 0.047	1 ± 0.051	1.03 ± 0.029	0.99 ± 0.028		1.08 ± 0.039	1.03 ± 0.056	1.03 ± 0.045	0.979 ± 0.019	0.966 ± 0.042	1.03 ± 0.01	0.988 ± 0.043	0.916 ± 0.053	0.467 ± 0.025	0.0688 ± 0.0064	0.0615 ± 0.0039
JURKAT HAEMATOPOIETIC AND LYMPHOID TISSUE	1.05 ± 0.031	1.07 ± 0.031	0.986 ± 0.034		0.994 ± 0.032	1.02 ± 0.038	1.03 ± 0.039	1.04 ± 0.041	1.08 ± 0.028	1.07 ± 0.013	1.05 ± 0.015	1.01 ± 0.021	0.927 ± 0.038	0.948 ± 0.02	0.619 ± 0.029	0.103 ± 0.014
KPD BONE	1.077 ± 0.008	0.983 ± 0.068	1.11 ± 0.043	1.1 ± 0.082	1.16 ± 0.067	1.05 ± 0.097		0.99 ± 0.023	1.04 ± 0.068	0.982 ± 0.083	1.03 ± 0.1	1.05 ± 0.11	1.06 ± 0.054	0.979 ± 0.025	0.4 ± 0.025	0.224 ± 0.028
LM7 BONE				1.11 ± 0.082	1.19 ± 0.074	1.17 ± 0.063	1.04 ± 0.016	0.959 ± 0.11	0.96 ± 0.013	0.916 ± 0.015	0.945 ± 0.068	1.02 ± 0.054	1.06 ± 0.086	0.99 ± 0.099	0.835 ± 0.11	0.528 ± 0.077
LNCAP PROSTATE		1.1 ± 0.1	0.968 ± 0.068		0.967 ± 0.14	0.986 ± 0.049			0.913 ± 0.085	0.863 ± 0.11	0.863 ± 0.015	0.92 ± 0.05	0.85 ± 0.064	0.855 ± 0.041	0.549 ± 0.047	0.464 ± 0.036
MCF7 BREAST	0.988 ± 0.064		0.97 ± 0.03	0.955 ± 0.062	1.04 ± 0.018	1.01 ± 0.033	1.05 ± 0.043	0.986 ± 0.014	0.896 ± 0.012	0.87 ± 0.042	0.873 ± 0.069	0.881 ± 0.063	0.904 ± 0.026	0.813 ± 0.046	0.751 ± 0.016	0.697 ± 0.023
MDAMB134 BREAST	0.896 ± 0.08			0.86 ± 0.057	1.02 ± 0.093	1.11 ± 0.024	0.994 ± 0.17	0.814 ± 0.15	0.726 ± 0.035	0.791 ± 0.072	0.766 ± 0.071	0.663 ± 0.12	0.66 ± 0.073	0.6525 ± 0.005	0.497 ± 0.054	0.488 ± 0.02
MDAMB157 BREAST		1.01 ± 0.028	1.02 ± 0.018			0.939 ± 0.021	0.956 ± 0.018	0.855 ± 0.11	0.946 ± 0.057	0.982 ± 0.033	1.01 ± 0.021	0.947 ± 0.048	1.03 ± 0.051	0.902 ± 0.11	0.239 ± 0.015	0.136 ± 0.029
MDAMB231 BREAST	0.9973 ± 0.0088	1.03 ± 0.04	1.01 ± 0.039	1.03 ± 0.022	1 ± 0.058	1.01 ± 0.027	0.968 ± 0.042	0.96 ± 0.024	0.9579 ± 0.0095	0.9571 ± 0.0043	0.93 ± 0.076	0.959 ± 0.024	0.9788 ± 0.0062	0.961 ± 0.02	0.743 ± 0.029	0.492 ± 0.0092
MDAMB361 BREAST	0.927 ± 0.066	0.879 ± 0.079	0.826 ± 0.018	0.878 ± 0.046	0.869 ± 0.082	0.879 ± 0.081		0.827 ± 0.087	0.818 ± 0.021	0.744 ± 0.048	0.752 ± 0.058	0.775 ± 0.053	0.724 ± 0.03	0.547 ± 0.056	0.481 ± 0.02	0.488 ± 0.04
MDAMB436 BREAST	1.01 ± 0.078	0.984 ± 0.11	0.985 ± 0.079	0.998 ± 0.093	1.04 ± 0.14		1.1 ± 0.12		0.927 ± 0.072	0.927 ± 0.15	0.963 ± 0.14	0.959 ± 0.13	0.953 ± 0.11	0.808 ± 0.14	0.641 ± 0.1	0.451 ± 0.077
MDAMB453 BREAST		1.1 ± 0.086	1.13 ± 0.051	1.12 ± 0.1	1.18 ± 0.034	1.06 ± 0.034	1.082 ± 0.0067	1.04 ± 0.011	1.04 ± 0.025	1.09 ± 0.063	1.11 ± 0.058	1.06 ± 0.025	1.1 ± 0.051	1.1 ± 0.056	0.596 ± 0.074	0.273 ± 0.012
MDAMB468 BREAST	0.997 ± 0.075	1.05 ± 0.059	1.01 ± 0.02	1.06 ± 0.066	1.09 ± 0.081	1.18 ± 0.032	1.103 ± 0.01	1.06 ± 0.06	0.976 ± 0.074	1.01 ± 0.043	1.08 ± 0.035	1.071 ± 0.0092	1.03 ± 0.036	1.03 ± 0.041	0.54 ± 0.039	0.223 ± 0.017
